Assay results published in PubChem BioAssay AID2060511 (Molecular Pharmacology Branch, DTP, NCI, 2025).

System: 422866-222-R5-J1-PDC spheroids with HUVEC/MSC, viability
Test: Anticancer human tumor 422866-222-R5-J1-PDC patient-derived pancreatic adenocarcinoma cell line growth inhibition [GQUAD]
Conditions: for IC50: curve of first compound; for viability, T/C: stronger effect = lower value
Summary of the method: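 Viability of tumor cells grown as complex spheroids with endothelial and stromal cells, exposed to drug combinations. Top concentration at or near clinical Cmax (else 10 microM), diluted in half-log increments.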

[1] = second compound 0.0316 µM, first compound 0.0316 µM
[2] = second compound 0.0316 µM, first compound 0.1 µM
[3] = second compound 0.0316 µM, first compound 0.316 µM
[4] = second compound 0.0316 µM, first compound 1 µM
[5] = second compound 0.0316 µM, first compound 3.16 µM
[6] = second compound 0.0316 µM, first compound 10 µM
[7] = second compound 0.1 µM, first compound 0.0316 µM
[8] = second compound 0.1 µM, first compound 0.1 µM
[9] = second compound 0.1 µM, first compound 0.316 µM
[10] = second compound 0.1 µM, first compound 1 µM
[11] = second compound 0.1 µM, first compound 3.16 µM
[12] = second compound 0.1 µM, first compound 10 µM
[13] = second compound 0.316 µM, first compound 0.0316 µM
[14] = second compound 0.316 µM, first compound 0.1 µM
[15] = second compound 0.316 µM, first compound 0.316 µM
[16] = second compound 0.316 µM, first compound 1 µM
[17] = second compound 0.316 µM, first compound 3.16 µM
[18] = second compound 0.316 µM, first compound 10 µM
[19] = second compound 1 µM, first compound 0.0316 µM
[20] = second compound 1 µM, first compound 0.1 µM
[21] = second compound 1 µM, first compound 0.316 µM
[22] = second compound 1 µM, first compound 1 µM
[23] = second compound 1 µM, first compound 3.16 µM
[24] = second compound 1 µM, first compound 10 µM
[25] = second compound 3.16 µM, first compound 0.0316 µM
[26] = second compound 3.16 µM, first compound 0.1 µM
[27] = second compound 3.16 µM, first compound 0.316 µM
[28] = second compound 3.16 µM, first compound 1 µM
[29] = second compound 3.16 µM, first compound 3.16 µM
[30] = second compound 3.16 µM, first compound 10 µM
[31] = second compound 10 µM, first compound 0.0316 µM
[32] = second compound 10 µM, first compound 0.1 µM
[33] = second compound 10 µM, first compound 0.316 µM
[34] = second compound 10 µM, first compound 1 µM
[35] = second compound 10 µM, first compound 3.16 µM
[36] = second compound 10 µM, first compound 10 µM
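Further: spheroids exposed to compounds for seven days before reading.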
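Wherever viability, T/C is given: percent viability relative to DMSO vehicle control taken as 100%.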

Molecule `CC(=O)O[C@H]1C(=O)[C@@]2(C)[C@H]([C@H](OC(=O)c3ccccc3)[C@]3(O)C[C@H](OC(=O)[C@H](O)[C@@H](NC(=O)c4ccccc4)c4ccccc4)C(C)=C1C3(C)C)[C@]1(OC(C)=O)CO[C@@H]1C[C@@H]2O` + Cc1[nH]c2ccc(F)cc2c1-c1nc2c3cccnc3c3ncccc3c2[nH]1 has an IC50 (second compound 0.0316 µM) of 671 nM, an IC50 (second compound 0.1 µM) of 1300 nM and an IC50 (second compound 0.316 µM) of 2040 nM. The IC50 (second compound 1 µM) was 1720 nM, the IC50 (second compound 3.16 µM) was 2160 nM and the IC50 (second compound 10 µM) was 2040 nM. It also gave a viability, T/C [1] of 143%, a viability, T/C [2] of 143% and a viability, T/C [3] of 74.7%. For the same molecule, the viability, T/C [4] was 39%, the viability, T/C [5] was 44.4% and the viability, T/C [6] was 1.31%. It also gave a viability, T/C [7] of 109%, a viability, T/C [8] of 128% and a viability, T/C [9] of 100%. For the same molecule, the viability, T/C [10] was 48.5%, the viability, T/C [11] was 37.1% and the viability, T/C [12] was 2.15%. The viability, T/C [13] was 122%, the viability, T/C [14] was 107% and the viability, T/C [15] was 99.5%. It also gave a viability, T/C [16] of 55.3%, a viability, T/C [17] of 46.9% and a viability, T/C [18] of 3.01%. It also gave a viability, T/C [19] of 117%, a viability, T/C [20] of 115% and a viability, T/C [21] of 98.5%. For the same molecule, the viability, T/C [22] was 53.4%, the viability, T/C [23] was 42% and the viability, T/C [24] was 2.03%. It also gave a viability, T/C [25] of 70.5%, a viability, T/C [26] of 75% and a viability, T/C [27] of 95%. The viability, T/C [28] was 43.4%, the viability, T/C [29] was 50% and the viability, T/C [30] was 3.32%. The viability, T/C [31] was 56.1%, the viability, T/C [32] was 62% and the viability, T/C [33] was 58.2%. For the same molecule, the viability, T/C [34] was 46.6%, the viability, T/C [35] was 49.7% and the viability, T/C [36] was 4.03%.
With `CC1COCCN1c1cc(-c2ccnn2C)c2ccnc(-c3ccn[nH]3)c2n1` (stereo not drawn) + Cc1cnc(CNC(=O)c2c(=O)c3ccc(N4CCCN(C)CC4)nc3n3c2sc2ccccc23)cn1 the IC50 (second compound 0.0316 µM) was over 10000 nM, the IC50 (second compound 0.1 µM) was 31.6 nM and the IC50 (second compound 0.316 µM) was over 10000 nM. The IC50 (second compound 1 µM) was over 10000 nM, the IC50 (second compound 3.16 µM) was over 10000 nM and the IC50 (second compound 10 µM) was over 10000 nM. The viability, T/C [1] was 75.9%, the viability, T/C [2] was 61.6% and the viability, T/C [3] was 47.4%. The viability, T/C [4] was 38%, the viability, T/C [5] was 55% and the viability, T/C [6] was 81.7%. It also gave a viability, T/C [7] of 64.5%, a viability, T/C [8] of 53.1% and a viability, T/C [9] of 48.5%. It also gave a viability, T/C [10] of 41.6%, a viability, T/C [11] of 46.5% and a viability, T/C [12] of 89.7%. It also gave a viability, T/C [13] of 65.3%, a viability, T/C [14] of 60.9% and a viability, T/C [15] of 50.7%. The viability, T/C [16] was 40.5%, the viability, T/C [17] was 50.9% and the viability, T/C [18] was 69.9%. The viability, T/C [19] was 71.4%, the viability, T/C [20] was 68.7% and the viability, T/C [21] was 53.2%. The viability, T/C [22] was 53.1%, the viability, T/C [23] was 47.5% and the viability, T/C [24] was 67.7%. It also gave a viability, T/C [25] of 70.2%, a viability, T/C [26] of 74.8% and a viability, T/C [27] of 61%. For the same molecule, the viability, T/C [28] was 59%, the viability, T/C [29] was 46.9% and the viability, T/C [30] was 61.8%. For the same molecule, the viability, T/C [31] was 66.3%, the viability, T/C [32] was 66.9% and the viability, T/C [33] was 56%. For the same molecule, the viability, T/C [34] was 51.6%, the viability, T/C [35] was 57.6% and the viability, T/C [36] was 53.1%.
`COc1cc(C2c3cc4c(cc3C(OC3OC5COC(C)OC5C(O)C3O)C3COC(=O)C23)OCO4)cc(OC)c1O` (stereo not drawn) + Cc1[nH]c2ccc(F)cc2c1-c1nc2c3cccnc3c3ncccc3c2[nH]1 was tested, and the IC50 (second compound 0.0316 µM) was 1570 nM, the IC50 (second compound 0.1 µM) was 835 nM and the IC50 (second compound 0.316 µM) was 2050 nM. It also gave an IC50 (second compound 1 µM) of 1920 nM, an IC50 (second compound 3.16 µM) of 945 nM and an IC50 (second compound 10 µM) of 2230 nM. For the same molecule, the viability, T/C [1] was 108%, the viability, T/C [2] was 96.3% and the viability, T/C [3] was 86.6%. It also gave a viability, T/C [4] of 51.3%, a viability, T/C [5] of 47.8% and a viability, T/C [6] of 40.2%. It also gave a viability, T/C [7] of 100%, a viability, T/C [8] of 104% and a viability, T/C [9] of 68.5%. The viability, T/C [10] was 52%, the viability, T/C [11] was 48.6% and the viability, T/C [12] was 36.6%. It also gave a viability, T/C [13] of 97.7%, a viability, T/C [14] of 87.9% and a viability, T/C [15] of 75.2%. For the same molecule, the viability, T/C [16] was 56.8%, the viability, T/C [17] was 45.5% and the viability, T/C [18] was 39.8%. The viability, T/C [19] was 97.1%, the viability, T/C [20] was 92.2% and the viability, T/C [21] was 85.8%. For the same molecule, the viability, T/C [22] was 59.7%, the viability, T/C [23] was 42.5% and the viability, T/C [24] was 38.5%. The viability, T/C [25] was 82.8%, the viability, T/C [26] was 90.3% and the viability, T/C [27] was 75.5%. It also gave a viability, T/C [28] of 48.6%, a viability, T/C [29] of 48.5% and a viability, T/C [30] of 38.5%. It also gave a viability, T/C [31] of 87.8%, a viability, T/C [32] of 89.2% and a viability, T/C [33] of 77.4%. The viability, T/C [34] was 56.5%, the viability, T/C [35] was 46.5% and the viability, T/C [36] was 46.8%.
Molecule `O=C(NO)c1cnc(N2CCN(S(=O)(=O)c3ccc4ccccc4c3)CC2)nc1` + CN(C)c1ccc(Nc2c3ccc(NC(=O)CCN4CCCC4)cc3nc3cc(NC(=O)CCN4CCCC4)ccc23)cc1 has an IC50 (second compound 0.0316 µM) of 792 nM, an IC50 (second compound 0.1 µM) of 944 nM and an IC50 (second compound 0.316 µM) of 838 nM. It also gave an IC50 (second compound 1 µM) of 856 nM, an IC50 (second compound 3.16 µM) of 566 nM and an IC50 (second compound 10 µM) of 1110 nM. For the same molecule, the viability, T/C [1] was 93.7%, the viability, T/C [2] was 115% and the viability, T/C [3] was 79.9%. The viability, T/C [4] was 37.4%, the viability, T/C [5] was 29.4% and the viability, T/C [6] was 1.05%. For the same molecule, the viability, T/C [7] was 100%, the viability, T/C [8] was 101% and the viability, T/C [9] was 89.8%. For the same molecule, the viability, T/C [10] was 38.5%, the viability, T/C [11] was 32.1% and the viability, T/C [12] was 1.23%. For the same molecule, the viability, T/C [13] was 98%, the viability, T/C [14] was 111% and the viability, T/C [15] was 67.4%. It also gave a viability, T/C [16] of 37.4%, a viability, T/C [17] of 37.1% and a viability, T/C [18] of 1.09%. It also gave a viability, T/C [19] of 92.5%, a viability, T/C [20] of 92.9% and a viability, T/C [21] of 66.8%. It also gave a viability, T/C [22] of 38.1%, a viability, T/C [23] of 34% and a viability, T/C [24] of 1.34%. The viability, T/C [25] was 87.6%, the viability, T/C [26] was 94.6% and the viability, T/C [27] was 54.5%. The viability, T/C [28] was 30.7%, the viability, T/C [29] was 36.1% and the viability, T/C [30] was 1.79%. It also gave a viability, T/C [31] of 89.6%, a viability, T/C [32] of 88.2% and a viability, T/C [33] of 72.2%. It also gave a viability, T/C [34] of 38.4%, a viability, T/C [35] of 41.3% and a viability, T/C [36] of 1.96%.
